How the values were obtained:
Details in all cases: 72 h
Caco-2 [1] = assay: cell viability relative to DMSO; higher = less toxic
Calu-3 [2] = assay: as above
HepG2 [3] = assay: as above
U2OS [4] = assay: as above
Vero E6 [5] = assay: as above
Caco-2 [6] = assay: relative viability EC50 (midpoint between 100% and the lowest measured viability); higher = less toxic
Calu-3 [7] = assay: as above
HepG2 [8] = assay: as above
U2OS [9] = assay: as above
Vero E6 [10] = assay: as above
Caco-2 [11] = assay: drug sensitivity score (DSS) for viability; higher = more toxic; extreme values may be limits of the assay
Calu-3 [12] = assay: as above
HepG2 [13] = assay: as above
U2OS [14] = assay: as above
Vero E6 [15] = assay: as above

Structure (SMILES)	cell viability (Caco-2 [1]; 1 nM) [%]	cell viability (Caco-2 [1]; 10 nM) [%]	cell viability (Caco-2 [1]; 100 nM) [%]	cell viability (Caco-2 [1]; 1000 nM) [%]	cell viability (Caco-2 [1]; 10000 nM) [%]	cell viability (Calu-3 [2]; 1 nM) [%]	cell viability (Calu-3 [2]; 10 nM) [%]	cell viability (Calu-3 [2]; 100 nM) [%]	cell viability (Calu-3 [2]; 1000 nM) [%]	cell viability (Calu-3 [2]; 10000 nM) [%]	cell viability (HepG2 [3]; 1 nM) [%]	cell viability (HepG2 [3]; 10 nM) [%]	cell viability (HepG2 [3]; 100 nM) [%]	cell viability (HepG2 [3]; 1000 nM) [%]	cell viability (HepG2 [3]; 10000 nM) [%]	cell viability (U2OS [4]; 1 nM) [%]	cell viability (U2OS [4]; 10 nM) [%]	cell viability (U2OS [4]; 100 nM) [%]	cell viability (U2OS [4]; 1000 nM) [%]	cell viability (U2OS [4]; 10000 nM) [%]	cell viability (Vero E6 [5]; 1 nM) [%]	cell viability (Vero E6 [5]; 10 nM) [%]	cell viability (Vero E6 [5]; 100 nM) [%]	cell viability (Vero E6 [5]; 1000 nM) [%]	cell viability (Vero E6 [5]; 10000 nM) [%]	relative viability EC50 (Caco-2 [6]) [µM]	relative viability EC50 (Calu-3 [7]) [µM]	relative viability EC50 (HepG2 [8]) [µM]	relative viability EC50 (U2OS [9]) [µM]	relative viability EC50 (Vero E6 [10]) [µM]	drug sensitivity score (Caco-2 [11])	drug sensitivity score (Calu-3 [12])	drug sensitivity score (HepG2 [13])	drug sensitivity score (U2OS [14])	drug sensitivity score (Vero E6 [15])
CC(C)(C)C(=O)/C(=N/c1ccc(Cl)cc1)NNc1ccc(Cl)cc1	82.3	91.6	91.4	96.6	83.9	97.8	107	98.8	98.6	102	105	95	95.5	95.3	97.6	96.7	107	102	103	94	97.5	99.3	102	97.2	107	> 10	> 10	> 10	> 10	> 10	0	0	0	0	0
CC(C)NC(=O)c1ccc(C#Cc2ccncc2)cn1	101	90.3	99.1	92.4	95.4	90.1	95.8	99.9	99	114	104	102	98.1	96.7	98.1	95.1	98.3	97.1	104	102	100	96.1	92.2	94.5	101	> 10	> 10	> 10	> 10	> 10	0	0	0	0	0
COc1cc(C(=O)NCC2(N(C)C)CCCC2)cc(OC)c1OCc1ccccc1	95.5	98.1	103	97.3	93.5	94.3	92.1	96.7	103	85.8	97.3	106	101	88.8	89.6	100	104	97	104	95.9	104	99.9	107	99.4	95.8	> 10	> 10	> 10	> 10	> 10	0	0.1	0.3	0	0
C[C@H](NC[C@H](O)CP(=O)(O)Cc1ccccc1)c1ccc(Cl)c(Cl)c1	104	100	95.9	99.5	89.8	102	107	95.3	100	106	96.9	92.4	94.8	80.1	95	96.5	101	94.6	97.9	94.3	99.4	96.8	98.1	94.8	98.1	> 10	> 10	> 10	> 10	> 10	0	0	0	0	0
Cc1nc2ccc(NC(=O)Nc3ccnc4cccnc34)cc2o1	94.9	92.2	98	89.6	76.1	102	103	94.5	92.7	90.3	98.9	102	94.7	92.8	80.7	101	93	99.3	96.4	96.4	97.6	98.8	90.9	102	93.2	> 10	> 10	> 10	> 10	> 10	1.6	0	0.8	0	0
Nc1nc2c(cnn2CCc2ccccc2)c2nc(-c3ccco3)nn12	96.7	104	93.5	78.3	67.5	88.2	100	95.7	113	90.7	97.7	101	90.9	25.5	12.7	98	99.8	92.7	98.6	100	107	99.8	98.2	99.6	96.1		> 10	0.354	> 10	> 10	4.1	0	14.9	0	0
O=C1NC(=O)c2cc(Nc3ccc(F)cc3)c(Nc3ccc(F)cc3)cc21	93.9	88.6	95.2	93.3	70.2	106	106	94.7	106	77.8	101	93.9	101	91.8	49.7	95	100	97.2	101	87.9	96.9	97.1	99.9	93.5	103		> 10	1.91	> 10	> 10	2.2	0.5	4	0	0
c1ccc(N2CCN(CCCOc3ccc4c(c3)OCO4)CC2)cc1 [BP-554]	107	102	101	105	98.7	101	107	99.5	103	110	107	93.1	95.3	102	103						94.5	94.6	94.7	96.2	96	> 10	> 10	> 10		> 10	0	0	0		0
CC(=O)Oc1ccccc1C(=O)Oc1cccc(CO[N+](=O)[O-])c1 [NO-ASA]						96.3	101	98.9	103	107	95.4	104	100	88.9	79.9	98	98.5	99.4	101	93.1	102	108	101	89.7	105		> 10	> 10	> 10	> 10		0	1.7	0	0
CC(C)c1nc(CN(C)C(=O)N[C@H](C(=O)N[C@@H](Cc2ccccc2)C[C@H](O)[C@H](Cc2ccccc2)NC(=O)OCc2cncs2)C(C)C)cs1 [Ritonavir]	99.9	90.5	94.4	96.9	77.6	97.4	89.1	94.9	103	86.3	103	93.9	97.2	96.8	93.8	93.7	97.8	100	99.2	96.4						> 10	> 10	> 10	> 10	> 10	1.2	0.1	0	0	0
CCOc1ccc(NC(=S)N2CCC(C(O)(c3ccccc3)c3ccccc3)CC2)cc1 [SF-11]						100	107	96.7	104	96.5	99.5	100	103	109	91.7	101	96.6	98.4	98.2	100	101	99.9	98.4	99.8	102		> 10	> 10	> 10	> 10		0	0	0	0
O=C(Nc1cc(-c2ccccc2)nn1-c1ccccc1F)c1ccc([N+](=O)[O-])cc1 [VU1545]						101	97.7	92.9	98	87.5	107	83.9	104	89.6	97.5						111	105	107	108	99.9		> 10	> 10		> 10		0	0		0
CN(C)N(C)C(=O)[C@@]1(Cc2ccccc2)CCCN(C(=O)[C@@H](Cc2c[nH]c3ccccc23)NC(=O)C(C)(C)N)C1 [anamorelin]						85.1	86.9	91.7	94.4	89.8	113	99.6	106	102	103	103	100	104	102	99.5	103	107	101	104	95.4		> 10	> 10	> 10	> 10		0	0	0	0
Oc1cc2c(cc1O)CN(C(=S)NCCc1ccc(Cl)cc1)CCC2 [capsazepine]	90.9	98.4	91.2	90.2	65.8	107	103	110	104	92.6	103	114	107	100	86.9	98.2	103	97.3	101	97.7	101	101	101	92.2	98.8		> 10	> 10	> 10	> 10	2.5	0	0.1	0	0

From the supplement of paper PMC13380429
